Assay results reported in patent publication US20170334899A1, “AMINO-SUBSTITUTED ISOTHIAZOLES” (Bayer Pharma Aktiengesellschaft, priority 2014, published 2017).

What was measured:
[1] = target: T1, catalytic domain of human Bub1 (amino acids 704-1085) (Homo sapiens, UniProt O43683); test: Bub1 kinase assay (TR-FRET); format: biochemical; details: 10 μM ATP, avg, read-out: Bub1 avg (IC50 [mol/l])
T1 construct: catalytic domain of human Bub1 (amino acids 704-1085); His6 (N); made in house; host or cells: insect cells (Hi5)
Summary of the method: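 Readout is the 665/620 nm TR-FRET ratio from anti-phosphoserine antibody, Eu-labelled anti-mouse IgG and streptavidin-XL665, scaled between no-enzyme and uninhibited controls. Reaction: 1 μM biotinylated peptide, 10 μM ATP, 60 min, 22 °C, after 15 min compound preincubation with His6-Bub1 (704-1085, insect-expressed, ~200 ng/ml).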

HeLa = test: Proliferation assay (crystal violet), HeLa; format: cell-based; details: Homo sapiens, HeLa, 96 h, HeLa cells; 4 days incubation; crystal violet staining; read-out: IC50 inhibition of proliferation, HeLa
Summary of the method: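 Four-day compound exposure (0.001-10 μM, 0.5% DMSO final) began 24 h after seeding 1000-5000 cells/well in medium with 10% fetal calf serum. Cell number read by crystal violet absorbance at 595 nm, scaled between day-zero plate and untreated control; 4-parameter fit gave IC50.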

T1 sequence (O43683 704-1085): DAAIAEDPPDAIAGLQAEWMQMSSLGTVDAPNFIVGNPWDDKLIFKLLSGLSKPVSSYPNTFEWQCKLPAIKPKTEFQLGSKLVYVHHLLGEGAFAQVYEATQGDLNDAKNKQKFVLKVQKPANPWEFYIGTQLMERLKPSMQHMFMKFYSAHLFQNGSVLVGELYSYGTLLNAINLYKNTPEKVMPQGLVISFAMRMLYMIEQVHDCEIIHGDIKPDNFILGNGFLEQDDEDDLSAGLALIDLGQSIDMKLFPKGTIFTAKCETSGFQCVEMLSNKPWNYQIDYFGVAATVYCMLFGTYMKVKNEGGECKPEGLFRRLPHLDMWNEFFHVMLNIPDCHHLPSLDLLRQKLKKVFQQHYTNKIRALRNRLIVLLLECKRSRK

IC50 [1]: > 20000 nM | IC50 (HeLa): 380 nM
SMILES: CCCN1CCC(COc2ccc(NC(=O)c3c(C)nsc3Nc3cnc(C(F)(F)F)cn3)cn2)C(F)(F)C1 (centres unmarked) [Example 394, N-{6-[(3,3-difluoro-1-propylpiperidin-4-yl)methoxy]pyridin-3-yl}-3-methyl-5-{[5-(trifluoromethyl)pyrazin-2-yl]amino}-1,2-thiazole-4-carboxamide]
